Source: patent WO2009115235A1, “Pde inhibitors for the treatment of pulmonary hypertension” (Bayer Schering Pharma AG, priority 2008, dated 2009)

Tests used:
[1] = system: isolated rat pulmonary vessels; assay: Relaxation of isolated small pulmonary arteries precontracted with norepinephrine (organ bath / vessel myograph); parameters: species or system rat (male Wistar); settings: comparison of vardenafil, sildenafil and tadalafil
conscious Beagle dogs = assay: Measurement of Pulmonary Artery Pressure in conscious telemetric Beagle dogs; format: in vivo, dog (male Beagle); settings: for lowering of pulmonary artery pressure (in words): conscious dogs; for reduction of U44096-induced PH (pulmonary artery pressure): conscious Beagle dogs, significant

CCCc1nc(C)c2c(=O)[nH]c(-c3cc(S(=O)(=O)N4CCN(CC)CC4)ccc3OCC)nn12 [Vardenafil, vardenafil]
relaxation of rat pulmonary vessels (ranking of PDE5 inhibitors) [1]: most prominent | relaxation of rat pulmonary vessels (ranking of PDE5 inhibitors) ([1]; listed as vardenafil): relaxed pulmonary vessels of rat more potently then the PDE5 inhibitors sildenafil and tadalafil | decrease of pulmonary artery pressure, inhaled vs oral (in words) (conscious Beagle dogs; inhalation compared with oral application, conscious dogs with telemetric implant): more potently decreased pulmonary artery pressure then Vardenafil applied orally | lowering of pulmonary artery pressure (in words) (conscious Beagle dogs; inhalation, 30μg/kg, compared with 10-fold higher oral dose): could lower pulmonary artery pressure as significantly as with the 10-fold higher oral dose | reduction of U44096-induced PH (pulmonary artery pressure) (conscious Beagle dogs; inhaled, 30μg/kg nebulized within 10 minutes): 30% | duration of the decrease of the pulmonary artery pressure (conscious Beagle dogs; inhaled, 30μg/kg/10 min, whole observation period 3 hours): ≥ 3 h | reduction of U44096-induced PH (pulmonary artery pressure) (conscious Beagle dogs; oral, 300μg/kg): 30% | lowering of pulmonary artery pressure (in words) (conscious Beagle dogs; oral, 300μg/kg): significantly lowered pulmonary artery pressure
